From patent US11491147B2, “Combination drug therapy reduces PARP-1 related DNA repair and increases the efficacy of genotoxic agents” (Indiana University Research and Technology Corporation, priority 2016, dated 2022)
Like-named read-outs stand apart in the source and are kept apart here.

Columns and labels:
[1] = tested on: M/FASN cells; test: MTT survival assay, M/FASN cells; type: cell-based, human
Method: FIG. 5. PARP-1 mediates FASN-associated DNA repair and genotoxic treatment resistance. A-B, Effect of FASN on PARP-1 expression as determined by Western blot (A) and real-time RT-PCR (B) in stable FASN-over-expressing and -knockdown cells. C, Effect of FASN on IR-induced histone-H3 PARylation. Cells were pre-treated without or with 0.5 μM olaparib followed by treatment with or without IR and harvested at different times following IR for lysate preparation, immunoprecipitation of histone-H3 in the presence of 100 μM PARG inhibitor, gallotannin, and Western blot analyses of PARylated and total histone H3. D, Effect of PARP-1 knockdown on FASN-induced NHEJ up-regulation. FASN-over-expressing (P/FASN) and the control (P/Vec) cells were transiently transected with PARP-1 or scrambled control siRNA followed by Western blot analysis of PARP-1 (left panel) and NHEJ activity assay (right panel) (n=3, *p<0.05; **p<0.01). E, Effect of PARP-1 inhibition on survival. M/FASN cells were treated with 1 mM 3-ABA, 0.5 μM olaparib, or their vehicle control for 48 hours followed by MTT assay. F, Effect of PARP-1 inhibition on doxorubicin resistance. M/FASN cells were pre-treated for 6 hours by 1 mM 3-ABA, 0.5 μM olaparib, or transfected with control or PARP-1 siRNA followed by tested doxorubicin resistance using MTT survival assay. (n=3-4, *p<0.05, **p<0.01).
To determine if FASN enhancement of PARP-1 likely mediates FASN function in cellular resistance to DNA damages, a survival assay of […] cells following doxorubicin treatment in the absence or presence of PARP-1 inhibitors, 3-ABA (3-aminobenzamide) or olaparib was carried out. Now referring to FIG. 5E, either 1 mM 3-ABA or 0.5 μM olaparib alone had no effect on M/FASN cell survival.
MTT survival assay was performed as previously described (see e.g., Yang Y, Chen Q, & Zhang J T (2002) Structural and functional consequences of mutating cysteine residues in the amino terminus of human multidrug resistance-associated protein 1. J. Biol. Chem. 277(46):44268-44277). Briefly, cells in 96-well plate were cultured for 24 hours and treated with various concentrations of doxorubicin, bleomycin, cisplatin or H2O2 continuously for 3 days followed by addition of thiazolyl blue tetrazolium bromide (MTT) to a final concentration of 0.5 mg/mL and incubation at 37° C. for 4 hours. Medium was then removed and formazan was solubilized in dimethyl sulfoxide and the OD570 was measured by a Synergy H1 hybrid reader (BioTek, Winooski, Vt.). IC50's were obtained from the fitted curves generated by GraphPad Prism 5.0 program (GraphPad Software, Inc.). Relative resistance factor (RRF) is calculated using the formula RRF=IC50 (test)/IC50 (control) with control normalized as 1. […]

[2] = tested on: PARP1 and γ-H2AX; test: Western blot of PARP1 and γ-H2AX (FIG. 24C); type: cell-based; details: dose-dependent
Method: (§1) FIG. 24. […] Actin was used as a loading control. D. effect of non-approved PPIs on the survival of breast cancer cell lines.
Cells were harvest and then lysed in TNN buffer with 1 mM DTT, 1 mM PMSF and 0.1% SDS for 30 min at 4° C. with occasional agitation. The cells were sonicated briefly and total proteins were harvested after centrifugation of the lysate at 16,000 g for 15 minutes at to remove cell debris. The protein concentration of cell lysates was determined using a Bio-Rad protein assay kit. Total cell lysates were then separated by SDS-PAGE, transferred to a polyvinylidene fluoride membrane, and probed using antibodies against fatty acid synthase (610963, BD biosciences), PARP-1 (46D11, CST), γ-H2AX (05-636, Millipore), and (3-Actin (A2228, Sigma). The blot was then probed with horseradish peroxidase-conjugated secondary antibodies (Sigma) and signals were captured on X-ray films following developing with Amersham ECL Western Blotting Detection Reagent (RPN2106, GE).

[3] = tested on: breast cancer cell lines; test: Survival of breast cancer cell lines, methylene blue staining assay (FIG. 24); type: cell-based, human; details: for activity in suppressing breast cancer cell survival, compared with lansoprazole: lansoprazole metabolites, MCF7, MDA-MB-231, MDA-MB-468 cells; for performance against breast cancer cell lines, compared with lansoprazole: non-FDA-approved PPIs, different breast cancer cell lines
Description: as §1

[4] = tested on: breast cancer patients; test: Retrospective survival analysis of electronic medical records of breast cancer patients; type: in vivo, human
Method: FIG. 16. Retrospective survival analysis of breast cancer patients with or without use of proton pump inhibitors (PPIs). De-identified electronic medical records of 6,752 breast cancer patients were retrieved from the database of Indiana Network for Patient Care (INPC) and subjected to Kaplan-Meier survival analysis in association with PPI usage in all patients (A) or in triple negative breast cancer patient subgroup (B). The p-value and hazard ratio (HR) were calculated from Cox proportional hazard models, which were adjusted for age, tumor stage, and time of first diagnosis.
Because PPIs are widely used for treatment of a variety of acid-related digestive disorders, many cancer patients may use PPIs without the knowledge that the combination of PPIs with their chemotherapy may have helped them. To this end, a retrospective association analysis was conducted using de-identified electronic medical records (EMR) of 6,752 breast cancer patients from Indiana Network for Patient Care (INPC). The average age at diagnosis is 58.9 years (range 19-102) and average age at death or last visit is 61.5 (range 21-104). Of this cohort, 534 patients took one or more PPIs after diagnosis as recorded in the EMR. There are 488 triple negative breast cancer (TNBC) patients, among them 35 used PPIs. Using the Cox proportional hazard regression model, the patient overall survival was analyzed against PPI usage. […] The protective effect of PPIs on patient survival was adjusted for age, tumor stage, and time of first diagnosis.
The patient database contains three domains of electronic medical records (EMR) of 6,752 de-identified breast cancer patients from Indiana Network for Patient Care (INPC). The first domain contains patient characteristics as shown in Supplemental Table 51. The second domain contains medical test results including body weight, blood tests, and office visit information. The third domain contains prescription information for each patient. The use of this database has been approved by IRB at Indiana University for this study.
The first task is to remove null and duplicated values and to resolve contradicting records. For patients that have contradicting records, different rules for different conflicts were followed. For conflicts on the first visit or diagnosis time, the earlier record at younger age were used as the first diagnosis and considered the later one as system update. For all other information including diagnosis information such as cancer subtype, the latest record was used as it is thought to be more accurate.
Next, the plain text information from the first domain of the database including but not limited to ER, PR, and HER2 test results, treatment plans, and therapy types were digitized. The record that is not clear was marked as unknown. For example, the HER2 status with a 2+ score, a borderline score, from IHC staining was usually confirmed with FISH test. Patients with a 2+ score but without a FISH test result were considered unknown in this study.
Further, the days of patient survival from data in the first domain were validated using prescription history of the same patient in the third domain of the database. When there is a conflict, the last day of office visit or prescription refill, whichever is later, was recorded as the last day of visit or death. Moreover, patients who took PPIs prior to their diagnosis of breast cancer but stopped taking them after diagnosis were considered non-PPI users in this study.

[5] = tested on: MCF7 cells; test: Colony formation survival assay, MCF7 cells; type: cell-based, human; details: Homo sapiens
Method: FIG. 15. […] B. Combination index. Combination index (CI) was derived using the data shown in A and the formula: […]
For each potency ratio, combination index of three effective concentrations at IC30, IC50, and IC70 were calculated for synergistic effects using Prism 7.0.
Cells were then harvested and re-plated in 6-well plates at a density of 200 cells/well followed by IR treatment at different doses and colony formation assay or collection of cells for Western blot analysis. Concentration-response curves and IC50 values were calculated using Prism 7.0 (GraphPad, La Jolla, USA).

[6] = pairwise versus Lansoprazole users, all patients
[7] = pairwise versus Omeprazole users, all patients
[8] = pairwise versus Pantoprazole users, all patients
[9] = single-PPI users versus No PPI, all breast cancer patients
[10] = versus Lansoprazole, AA patients
[11] = versus Lansoprazole, CA patients
[12] = versus No PPI, African American (AA) patients
[13] = versus No PPI, Caucasian (CA) patients
[14] = versus Pantoprazole, CA patients

NC(=O)c1cccc(N)c1 [3-ABA, 3-aminobenzamide]
effect on M/FASN cell survival ([1]; 1 mM 3-ABA or 0.5 μM olaparib alone, 48 hours): no effect | doxorubicin resistance level of M/FASN cells ([1]; pre-treated for 6 hours by 1 mM 3-ABA or 0.5 μM olaparib): significantly reduced

Cc1c(OCC(F)(F)F)ccnc1CSc1nc2cc(O)ccc2[nH]1 [5-hydroxy lansoprazole sulfide]
PARP1 expression [2]: inhibited PARP1 expression | production of γ-H2AX [2]: induced production of γ-H2AX in a dose-dependent manner | suppression of triple negative breast cancer cell survival, compared with lansoprazole ([3]; triple negative breast cancer cell lines): significantly more effective than lansoprazole

Cc1c(OCC(F)(F)F)ccnc1C[S+]([O-])c1nc2ccc(O)cc2[nH]1 (stereo not shown) [5-hydroxy lansoprazole]
activity in suppressing breast cancer cell survival, compared with lansoprazole [3]: lost their activity

COc1ccc2nc([S@@+]([O-])Cc3ncc(C)c(OC)c3C)[nH]c2c1 [Esomeprazole, esomeprazole]
HR (CoxPH ratio), overall survival [4, 6]: 2.57 | HR (CoxPH ratio), overall survival [4, 7]: 1.6 | HR (CoxPH ratio), overall survival [4, 8]: 1.44 | HR (CoxPH ratio), overall survival ([4]; pairwise versus Rabeprazole users, all patients): 0.92 | HR (CoxPH ratio), overall survival [4, 9]: 0.44 | HR, overall survival [4, 10]: 7.79*10^7 | HR, overall survival [4, 11]: 1.74 | HR, overall survival [4, 12]: 0.49 | HR, overall survival [4, 13]: 0.35 | HR, overall survival ([4]; versus Omeprazole, AA patients): 1.47 | HR, overall survival ([4]; versus Pantoprazole, AA patients): 0.84 | HR, overall survival [4, 14]: 2.08 | HR, overall survival ([4]; versus Rabeprazole, CA patients): 0.66

Cc1c(OCC(F)(F)F)ccnc1CSc1nc2ccccc2[nH]1 [lansoprazole sulfide]
activity in suppressing breast cancer cell survival, compared with lansoprazole [3]: lost their activity

Cc1c(OCC(F)(F)F)ccnc1CS(=O)(=O)c1nc2ccccc2[nH]1 [lansoprazole sulfone]
activity in suppressing breast cancer cell survival, compared with lansoprazole [3]: lost their activity

COc1ccc2[nH]c([S+]([O-])Cc3ncc(C)c(OC)c3C)nc2c1 (stereo not shown) [omeprazole]
IC50 ([5]; MCF7, read-out: IC50, cell survival, single agent, MCF7 cells, colony formation): 3100 nM | IC50 ([5]; MCF7, read-out: IC50 of omeprazole in the presence of olaparib, in the presence of 0.1 μM olaparib, MCF-7 cells): 1000 nM | IC50 ([5]; MCF7, read-out: IC50 of omeprazole in the presence of olaparib, in the presence of 0.3 μM olaparib, MCF-7 cells): 400 nM | HR (CoxPH ratio), overall survival [4, 9]: 0.28 | HR, overall survival [4, 12]: 0.33 | HR, overall survival [4, 13]: 0.27

COc1ccnc(C[S+]([O-])c2nc3ccc(OC(F)F)cc3[nH]2)c1OC (stereo not shown) [pantoprazole]
HR (CoxPH ratio), overall survival [4, 6]: 1.43 | HR (CoxPH ratio), overall survival [4, 7]: 1.11 | HR (CoxPH ratio), overall survival [4, 9]: 0.32 | HR, overall survival [4, 10]: 9.89*10^8 | HR, overall survival [4, 11]: 0.59 | HR, overall survival [4, 12]: 0.59 | HR, overall survival [4, 13]: 0.18 | HR, overall survival ([4]; versus Omeprazole, AA patients): 1.85 | HR, overall survival ([4]; versus Omeprazole, CA patients): 0.66

COCCCOc1ccnc(C[S+]([O-])c2nc3ccccc3[nH]2)c1C (stereo not shown) [rabeprazole]
HR (CoxPH ratio), overall survival [4, 6]: 2.13 | HR (CoxPH ratio), overall survival [4, 7]: 1.50 | HR (CoxPH ratio), overall survival [4, 8]: 1.43 | HR (CoxPH ratio), overall survival [4, 9]: 0.47 | HR, overall survival [4, 11]: 1.99 | HR, overall survival [4, 13]: 0.5031 | HR, overall survival ([4]; versus Omeprazole, CA patients): 1.77 | HR, overall survival [4, 14]: 2.57

COc1ccc2[nH]c([S+]([O-])Cc3ncc(C)c(OC)c3C)nc2n1 (stereo not shown) [tenatoprazole]
performance against breast cancer cell lines, compared with lansoprazole [3]: performed better than lansoprazole only against some cell lines

anaprazole
performance against breast cancer cell lines, compared with lansoprazole [3]: performed better than lansoprazole only against some cell lines
